Values of other authors, collected in patent US12036216B2 (TAHO Pharmaceuticals Ltd., priority 2021, dated 2024).
Structures can show the parent of a compound that is named as a salt. Where two headings read alike, the source gives them in different places.

Key:
[1] = molecular target: prothrombin time (PT); conditions: rat; read-out: apparent Ki for PT
[2] = molecular target: prothrombin time (PT); conditions: dog; read-out: apparent Ki for PT
[3] = tested on: factor Xa; conditions: dog; read-out: IC50 for anti-factor Xa activity
[4] = immediate release tablet formulation
[5] = not given; remark: listed apart in the source
[6] = not given; remark: listed apart in the source
[7] = not given; remark: listed apart in the source
[8] = molecular target: prothrombin time (PT); conditions: chimpanzee; read-out: apparent Ki for PT
[9] = pellets taken without the capsule shell compared with the intact capsule formulation

Row | increase of oral bioavailability [9] | SMILES | time to peak apixaban plasma concentration (after oral administration in healthy adults) | bioavailability (oral) | Ki [1] | Ki [2] | IC50 [3] | dissolved within 30 minutes [4] | Renal clearance as share of systemic clearance ([5]; chimpanzee) | absolute oral bioavailability ([5]; chimpanzee) | clearance (CL) ([5]; chimpanzees) | steady-state volume of distribution (Vd) ([5]; chimpanzees) | Renal clearance as share of systemic clearance ([6]; rat) | absolute oral bioavailability ([6]; rat) | clearance (CL) ([6]; rats) | steady-state volume of distribution (Vd) ([6]; rats) | Renal clearance as share of systemic clearance ([7]; dog) | absolute oral bioavailability ([7]; dog) | clearance (CL) ([7]; dogs) | steady-state volume of distribution (Vd) ([7]; dogs) | Ki [8]
1 | – | COc1ccc(-n2nc(C(N)=O)c3c2C(=O)N(c2ccc(N4CCCCC4=O)cc2)CC3)cc1 [apixaban, Apixaban] | […] | […] | ~1.7 µM | ~6.6 µM | […] | at least 80% | […] | […] | […] | ~0.17 L/kg | […] | […] | […] | […] | […] | […] | ~0.67 mL/min/kg | ~0.2 L/kg | ~4.8 µM
2 | 75% | CCCCCCOC(=O)NC(=N)c1ccc(NCc2nc3cc(C(=O)N(CCC(=O)OCC)c4ccccn4)ccc3n2C)cc1 [dabigatran etexilate mesylate] | – | – | – | – | – | – | – | – | – | – | – | – | – | – | – | – | – | – | –
